Experimental data as given in patent US20190309044A1, “POLYPEPTIDES AND USES THEREOF AS A DRUG FOR TREATMENT OF AUTOIMMUNE DISORDERS” (Compugen Ltd., priority 2017, published 2019).
Several values for one entry are separate records, joined by “and”; a condition that tells them apart may be missing. Equal entries are not always repeated. Entries after “also recorded” stand apart in the source; their conditions may differ.

Legend:
[1] = test system: healthy human skin transplanted onto beige-SCID mice; assay: Humanized psoriasis model, human skin xenografts on beige-SCID mice; assay type: in vivo, mouse; settings: for proliferation index (% Ki-67 positive cells): vs vehicle; for Healthy Skin, number of grafts / Psoriasiform Skin, number of affected grafts / Partial Psoriasiform With Tendency Towards Healthy skin, number of grafts: histological evaluation, day 28; for epidermal thickness: vs vehicle treated group
Description: In this model, psoriasis is induced in xenotransplants of healthy human skin transplanted onto beige severe combined immunodeficiency (SCID) mice followed by intradermal (i.d.) injection of IL-2 enriched Peripheral Blood Mononuclear Cells (PBMCs) isolated from blood of psoriasis patients (Nickoloff, 1995; Wrone-Smith, 1996 Gilhar et al., 2002, 2006, 2011). The activity of these compounds was compared to that of Enbrel, a TNF inhibitor which is an approved biological drug for treatment of psoriasis. As a control for model robustness, we used dexamethasone, a steroid with suppressive effects on inflammatory cytokines and chemokines such as TNF-alpha and interferon-gamma which cause severe psoriasis. All treatments were administered intradermally, except for dexamethasone which was given topically.
2.2. Study Protocol A) Healthy human skin pieces with a width of 0.4 mm and surface area of 1.5×1.5 cm were provided from residual skin of routine plastic surgery procedures from the Plastic Surgery Department of the Rambam Medical Center, Israel. In addition, 20 mL blood samples were taken from psoriatic patients. B) Seventy (70) beige-severe combined immunodeficient mice (SCID) (weight ˜20-25 g) were included in this study. Normal healthy human donor skin was transplanted onto the beige-SCID mice as previously described (Nickoloff et al., 1995; Wrone-Smith, 1996; Gilhar et al., 2002, 2006, 2011; Kalish et al., 2009) and the mice were divided into 7 groups. C) Peripheral Blood Mononuclear Cells (PBMCs) isolated from psoriatic patients' blood were cultured in the presence of IL-2 [Prospec, 100 U/mL of RPMI 1640 media, 10% human AB serum (Sigma, St. Louis, Mo.), 1% glutamine, 1% antibiotics (media components; Biological Industries, Kibbutz Beit Haemeck, Israel)] for 14 days, as previously described (Gilhar et al, 2002). D) Four weeks following engraftment, each mouse was injected intra-dermally (i.d.) into the grafted skin lesion, with 1×10^7 activated allogeneic enriched PBMCs from psoriatic patients (FIG. 20). Cells from different psoriasis patients were equally distributed between treatment groups so that each patient is represented in each treatment group. E) On the day of PBMCs injection into the skin grafts, mice were divided randomly into treatment groups (n=9-10 mice per group) and administration of all drugs started (FIG. 20). All tested compounds including the vehicle were given intradermally (intralesional), three times a week, except for dexamethasone which was given topically for 14 consecutive days (Table 3).
F) Twenty eight days after starting the injections and treatment, skin was harvested (FIG. 20). Grafts were analyzed for the following psoriatic parameters by histology: epidermal thickening (acanthosis), suprapapillary epidermal thinning (papillomatosis), hyperkeratosis, parakeratosis, orthokeratosis, agranulosis-hypogranulosis, appearance of neutrophils in the upper spinous layer or in the corneal cell layer—Munro microabscess, regular elongation of rete ridges, angiogenesis, edema and dilated tortuous blood vessels in the dermal papilla and mononuclear cell infiltrate in the papillary dermis. Epidermal thickness was measured as detailed below, and HLA-DR, ICAM-1, Ki-67 and immune infiltrates (anti-CD3 stain) were evaluated by immunohistochemistry (IHC).
The entire skin graft was excised and placed in 10% formal saline overnight. Then, the specimens were place in 70% ethanol and were embedded according to the standard H&E protocol. Histological assessment of the skin grafts was performed by light microscopy and evaluated by two blinded observers [the second observer evaluated random slides (about 25% of all slides) to compare the data obtained by the first observer. […] Epidermal thickness was determined with an ocular micrometer at a minimum of 50 points along the epidermis selected to represent points of maximal and minimal thickness.
Representative grafts were allocated for IHC analysis. […]

psoriasis patients = settings: at week 12; cited from earlier work
male DBA-1 mice = assay: Established collagen induced arthritis (CIA), macroscopic and histological scores; assay type: in vivo, mouse; settings: Enbrel 5 mg/kg
Protocol: Bovine type II collagen (CII) (RUNMC in house production, batch 03-04-08) at a concentration of 2 mg/ml in acetic acid 0.05M was emulsified in equal volumes of Freund's complete adjuvant (2 mg/ml of Mycobacterium tuberculosis strain H37Ra; Difco, Detroit, Mich.).
On day 0, 10-12 week old male DBA-1 mice (Janvier Elevage, France) (n=95) were immunized i.d. at the base of the tail with 100 μg of bovine CII. On day 21, mice received an intraperitoneal booster injection of 50 μg of CII dissolved in phosphate buffered saline (PBS), and the onset of arthritis occurred a few days after this booster.
Joint inflammation in each paw was scored visually, using a scale of 0-2 per paw with a maximal score of 8 per animal: 0=non inflamed, 1=mild inflammation, 1.5=marked inflammation, and 2=severe inflammation. Scoring was performed three times a week.
Treatment was started in established CIA early after onset of disease (i.e. therapeutic regimen), when the macroscopic scores per animal were between 0.25 and 1.25 (on a scale of 0-8). […] Histology was scored for inflammation and destruction on an arbitrary scale of 0-3, for five different parameters: […]
Joints were fixed for at least 4 days in 4% formaldehyde, decalcified in 5% formic acid, and subsequently dehydrated and embedded in paraffin. […] The severity of inflammation in the joints was scored on a scale of 0-3 (0=no cells, 1=mild cellularity, 2=moderate cellularity, and 3=maximal cellularity). […] Depletion of PG was determined using an arbitrary scale of 0-3, ranging from normal, fully stained cartilage to destained cartilage, fully depleted of PGs. Chondrocyte death was scored on a scale of 0-3 ranging from no loss of chondrocyte nuclei to complete empty cartilage surface. The degree of cartilage surface erosion was scored on a scale of 0-3, ranging from no damage to complete loss of articular cartilage. […] Histopathological changes in the joint were scored on three semiserial sections of the joint spaced 70 μm apart. […]

[2] = test system: synovial-like T-cell - macrophage co-cultures; assay: Synovial-like T-cell - macrophage co-cultures from RA patients not responding to TNF blockers, TNFa secretion; assay type: cell-based, human
Description: The therapeutic potential of C1ORF32-ECD-FC (SEQ ID #43) for treating RA was studied in co-cultures of activated T cells and macrophages that were modified to mimic the deleterious interaction of these cells in RA synovium. This interaction drives the secretion of pro-inflammatory cytokines that play a major role in the pathology of RA, leading to progressive joint inflammation and to joint destruction. Thus, these co-cultures provide a translational tool to evaluate the effect of potential drugs for treatment of RA (Wenink et al., Ann Rheum Dis 2012; 71:1 80-83).
Purified T cells and myeloid cells from blood of RA patients that fail to respond to treatment with TNF blockers were activated for 6 days with TNFa, IL-6 and IL-15 and co-cultures with Monocytes derived macrophages that were generated by activation of CD14+ monocytes with M-CSF for 6 days.
The amounts were administered as follows: FIG. 33: 30microg/ml of each protein; FIG. 34: 3, 10, 30microg/ml of each protein as shown.

MS patients' PBMCs = assay: Proliferation and cytokine secretion of PBMCs from MS patients; assay type: cell-based, human
Protocol: PBMCs were taken from eight MS patients with diagnosed relapsing-remitting disease who have experienced a relapse 1-2 days prior to blood drawing.
PBMCs were plated in a flat-bottom 96-well plate at 1e6 cells/well. The cells were cultured in the presence of anti-CD3 (0.5 ug/ml), MS-specific peptide MBP85-96 (10 ug/ml), or tetanus toxoid peptide TT830-843 (10 ug/ml). C1ORF32 ECD-Fc (SEQ ID NO: 43) or Control Ig were added to the cuture at the indicated concentrations. Two replicate plates were set to study for the effect of C1ORF32 ECD-Fc (SEQ ID NO: 43) on proliferation and on pro-inflammatory and anti-inflammatory cytokines secretion. To test for proliferation, the cultures were pulsed on day +1 of culture with 1uCi of tritiated thymidine and then harvested 3 days later on day +4 of culture. For cytokine analysis, super natantes from a replicate cultures were collected on day +4 of culture and tested using Millipore multiplex assay.

[3] = test system: TcK and macrophages co-cultures; assay: TcK:macrophage co-culture cytokine secretion, healthy volunteers; assay type: cell-based, human; settings: buffy coats of healthy volunteers
Protocol: • Purified CD4+ cells (2×10^6 cells/ml) are activated for 6 days in complete medium containing IL-15 (100 ng/ml), IL-6 (100 ng/ml) and TNFa (25 ng/ml).
TcKs are added to macrophage culture following removal of existing culture media at a ratio of 4:1 (5×10^4 cells/well/CD4^+ T cells plus 2×10^5 cells/well CD14^+ Macrophages). C1ORF32 ECD-Fc (SEQ ID NO:43) or Control IgG are added at 1, 3, 10, 30 μg/ml. For additional controls co-cultures are added with vehicle or with medium only (Wennink et al., 2012).
After 24 hrs of culture, cytokines (IL-10, IFN-α, IL-6, IL-12, RANTES, IL-13, IL-15, IL-17, MIP-1α, GM-CSF, IFNγ, TNFα, IL-1RA, IL-7, IL-1B, eotaxin, IL-2 IL-4 and IL-2R) are analyzed using ELISA and/or Luminex.
Co-culture of TcK with autologeuos ex-vivo differentiated macrophages mimics one of the crucial pathways mediating synovial macrophage activation in RA thus serving as a translational tool for evaluating the therapeutic potential of drug candidates. Therefore the effect of C1ORF32 ECD-Fc (SEQ ID NO:43) was tested on the secretion of a range of pro-inflammatory and anti-inflammatory cytokines in such co-cultures. Two studies were carried out, one in which buffy coats from healthy volunteers was used and another study in which the responses of RA patients blood cells responses were compared to that of healthy voluntiers in which blood was used rather than buffy coats.

Compound: Enbrel
- proliferation index (% Ki-67 positive cells) ([1]; IHC): trend of decrease
- Healthy Skin, number of grafts [1]: 3/9
- Psoriasiform Skin, number of affected grafts [1]: 6/9
- epidermal thickness [1]: no substantial effect; also recorded: no significant reduction
- psoriasis patients achieving PASI 75 (psoriasis patients): Forty nine
- bone erosions, histology (male DBA-1 mice): significant reduction

Compound: C[C@@H]1C[C@H]2[C@@H]3CCC4=CC(=O)C=C[C@]4(C)[C@@]3(F)[C@@H](O)C[C@]2(C)[C@@]1(O)C(=O)CO [dexamethasone]
- Healthy Skin, number of grafts [1]: 7/10
- Partial Psoriasiform With Tendency Towards Healthy skin, number of grafts [1]: 1
- Psoriasiform Skin, number of affected grafts [1]: 2 and 2/10
- Partial Psoriasiform With Tendency Towards Healthy skin, number of grafts ([1]; listed as Dexa): 1/10
- Psoriasiform Skin, number of affected grafts ([1]; listed as Dexa): 2/10
- grafts with moderate lymphocytic infiltration ([1]; mouse, in vivo): 1/10

Compound: C1ORF32 ECD-Fc (SEQ ID NO: 43): human-human fusion protein: human C1ORF32 ECD fused to human immunoglobulin Fc (SEQ ID NO:43)
- TNFa secretion ([2]; Example 20, 30 microg/ml): decreased the secretion of TNFα
- TNFa secretion in one of the donors ([2]; Example 20, 30 microg/ml): inhibited TNFα secretion
- TNFa secretion ([2]; Example 21, 3, 10, 30 microg/ml): decreased the secretion of TNFa; also recorded: inhibition of TNFa secretion in a dose dependent manner
- expression of HLA-DR, ICAM-1 and Ki-67 ([1]; IHC): decreased expression
- proliferation index (% Ki-67 positive cells) ([1]; IHC): trend towards decrease
- proliferation index (% Ki-67 positive cells) ([1]; IHC, listed as C1ORF ECD-Fc (SEQ ID NO:43)): most pronounced reduction
- Healthy Skin, number of grafts [1]: 5/9
- Psoriasiform Skin, number of affected grafts [1]: 4/9
- cases in which disease symptoms were eliminated ([1]; summary in detailed description): about a third of the cases
- epidermal thickness ([1]; listed as C1ORF ECD-Fc (SEQ ID NO:43)): significant reduction
- proliferation, secretion of IFNg, IL-17 and TNFa (MS patients' PBMCs; absence of activation): no effect
- IL-10, IL-4, TGFb and IL-6 (MS patients' PBMCs; absence of activation, in some of the donors): elevation
- IL-4, IL-10, TGFb and IL-6 secretion (MS patients' PBMCs; activated ex-vivo with MBP85-96): increase
- secretion of TNFa, RANTES, MIP-1a, GM-CSF and IL-5 [3]: inhibited
